Several values for one entry are separate records, joined by “and”; a condition that tells them apart may be missing. Identical values can stand only once. Like-named read-outs stand apart in the source and are kept apart here.
Molecular target: T1, PfCRT^Dd2_F145I (Plasmodium falciparum, UniProt Q8IBZ9, A220S/F145I/I356T/K76T/M74I/N326S/N75E/Q271E/R371I)
T1 construct: expressed in transfected cells; host or cells: Xenopus laevis oocytes injected with in vitro transcribed RNA (pSP64T)
T1 sequence (Q8IBZ9 1-424 M74I/N75E/K76T/F145I/A220S/Q271E/N326S/I356T/R371I): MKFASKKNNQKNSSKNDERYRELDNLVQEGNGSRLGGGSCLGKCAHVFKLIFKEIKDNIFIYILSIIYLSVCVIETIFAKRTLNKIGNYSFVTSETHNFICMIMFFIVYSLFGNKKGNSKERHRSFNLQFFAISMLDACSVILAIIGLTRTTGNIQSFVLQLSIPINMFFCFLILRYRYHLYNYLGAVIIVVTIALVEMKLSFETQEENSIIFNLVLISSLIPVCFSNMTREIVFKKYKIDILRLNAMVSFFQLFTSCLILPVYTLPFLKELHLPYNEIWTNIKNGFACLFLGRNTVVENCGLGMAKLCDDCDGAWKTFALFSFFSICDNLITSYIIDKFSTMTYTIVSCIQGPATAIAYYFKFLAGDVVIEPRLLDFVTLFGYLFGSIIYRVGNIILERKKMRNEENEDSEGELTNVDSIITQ
Assay: Competition kinetics of drug transport (radiolabeled substrate plus cold inhibitor), PfCRT^Dd2_F145I-expressing oocytes
Assay type: cell-based
Details: for PfCRTDd2_F145I-mediated CQ transport: 500 µM CQ; for Vmax, maximal velocity of drug transport: global fit; for β, partiality factor: factor on transport of the labeled drug by the other drug
Description: To further characterize the kinetic relationship between CQ and PPQ, we performed a series of competition reactions. To this end, water-injected oocytes and PfCRT-expressing oocytes were incubated in medium containing one of seven concentrations of radio-labeled CQ and one of six concentrations of cold PPQ for 60 min before the amount of radio-labeled CQ uptake was determined. The rate of PfCRT-mediated CQ uptake was calculated for each condition by subtracting the corresponding value obtained for water-injected oocytes from those of PfCRT-expressing oocytes. The results were analyzed as a function of the CQ concentration (Fig 4A) and 16 different models of substrate competition were globally fit to the data by the least-squares method, using Python. The models were ranked, according to their Akaike information criterion difference (ΔAICC) and their Akaike weight (Fig 4B), with the most plausible model being the one with the lowest AICC (ΔAICC = 0) and the highest Akaike weight.
A complementary set of experiments was undertaken to investigate the kinetic mechanism by which PfCRT^Dd2_F145I accepts CQ and PPQ (Fig 6). […] These included a global fit of the substrate competition data to the 16 kinetic models (Fig 6), analysis of the secondary plots (Vmax,app and Vmax,app/KM,app as a function of the inhibitor concentration) (Fig 7A), a fractional velocity plot analysis (Fig 7B) and a comparison of the experimental data with the modelled data using the noncompetitive inhibition equation (Fig 7C to 7F). […] The fractional velocity plot illustrated the partial character of the noncompetitive inhibition mechanism by yielding a partiality factor β^CQ = 0.31 ± 0.04, by which PPQ reduces the transport velocity of CQ (Fig 7B). […] A 3D model of the kinetics between PfCRT^Dd2_F145I, CQ and PPQ, and analyses of the residuals as a function of substrate and inhibitor concentrations confirmed that the model was also an appropriate explanation for the mutant transporter (Fig 7C to 7F).
Drug transport assays were performed as previously described. Briefly, measurements of radiolabeled drug uptake were made over 1 h, unless otherwise specified. […] Where specified, one or more unlabeled drugs were also present at the indicated concentrations. The direction of drug transport in the assays is from the extracellular medium (pH 6) into the oocyte cytosol (pH 7.2), which corresponds to the efflux of CQ or PPQ from the acidic digestive vacuole (pH 5.2) into the parasite cytosol (pH 7.2). The uptake assays were terminated by removing the oocytes from the reaction medium and washing them three times with 2 mL of ice-cold ND96 buffer. Each oocyte was transferred to a separate scintillation vial and lysed by the addition of 200 μL of a 5% SDS solution. The radioactivity in the sample was measured using a liquid scintillation analyser Tri-Carb 4910 TR (PerkinElmer). Water-injected oocytes were analyzed in parallel as a negative control. The buffer from each condition was measured in duplicate in parallel to each experiment to transform counts per minute into pmol of drug. Drug uptake attributable to PfCRT was determined by subtracting the background uptake from water-injected oocytes from that of PfCRT-expressing oocytes. In all cases, at least three independent experiments were performed on oocytes from different frogs, and for each condition in an experiment, measurements were made from 10 oocytes per treatment.
The following equations were adopted from Segel (1993), and the reader is referred to that text for the assumptions made in the author’s approach in the derivation of each equation [31]. The concentration of substrate is denoted as [S1] and the concentration of the inhibiting substrate is denoted as [S2]. KS1 and KS2 are the dissociation constants for the respective substrate-protein complexes.
Analyses of the kinetic data were performed using SigmaPlot version 13.0 and Python. […]

CCN(CC)CCCC(C)Nc1ccnc2cc(Cl)ccc12 (stereo not shown) [CQ, chloroquine]
PfCRTDd2_F145I-mediated CQ transport (200 µM PPQ): 12.08 pmol oocyte-1 h-1 and 15.16 pmol oocyte-1 h-1 and 13.13 pmol oocyte-1 h-1 | PfCRTDd2_F145I-mediated CQ transport (350 µM PPQ): 10.85 pmol oocyte-1 h-1 and 12.45 pmol oocyte-1 h-1 and 11.74 pmol oocyte-1 h-1 | most plausible inhibition model (16 models, ΔAICC, Akaike weight, secondary plots): partial noncompetitive inhibition | Vmax, maximal velocity of drug transport (Mixed (Partial) model, drug as radiolabeled substrate): 34 ± 2 pmol oocyte^-1 h^-1 | Kd (Mixed (Partial) model, drug as cold inhibitor, read-out: KS, dissociation constant for the PfCRT-substrate complex): 200 ± 90 µM | Kd (Mixed (Partial) model, drug as radiolabeled substrate, read-out: KS, dissociation constant for the PfCRT-substrate complex): 350 ± 50 µM | β, partiality factor (Mixed (Partial) model): 0.41 ± 0.08 | α, KS interaction factor (Mixed (Partial) model, label = radiolabeled substrate, other drug cold inhibitor): 1.0 ± 0.3 | Vmax, maximal velocity of drug transport (Noncompetitive (Partial) model, drug as radiolabeled substrate, other drug as cold inhibitor): 34 pmol oocyte^-1 h^-1 and 34 ± 2 pmol oocyte^-1 h^-1 | Kd (Noncompetitive (Partial) model, drug as cold inhibitor, read-out: KS, dissociation constant for the PfCRT-substrate complex): 225 µM and 230 µM | Kd (Noncompetitive (Partial) model, drug as radiolabeled substrate, read-out: KS, dissociation constant for the PfCRT-substrate complex): 357 µM and 360 µM | β, partiality factor (Noncompetitive (Partial) model): 0.40 and 0.40 ± 0.04 | KMapp ([3H]CQ + PPQ) ([PPQ] 0 µM): 355.22 µM | Vmaxapp ([3H]CQ + PPQ) ([PPQ] 0 µM): 32.70 pmol oocyte-1 h-1 | Vmaxapp/KMapp ([3H]CQ + PPQ) ([PPQ] 0 µM): 0.0962 h⁻¹ | KMapp ([3H]CQ + PPQ) ([PPQ] 50 µM): 351.46 µM | Vmaxapp ([3H]CQ + PPQ) ([PPQ] 50 µM): 27.98 pmol oocyte-1 h-1 | Vmaxapp/KMapp ([3H]CQ + PPQ) ([PPQ] 50 µM): 0.0844 h⁻¹ | KMapp ([3H]CQ + PPQ) ([PPQ] 125 µM): 355.14 µM | Vmaxapp ([3H]CQ + PPQ) ([PPQ] 125 µM): 25.60 pmol oocyte-1 h-1 | Vmaxapp/KMapp ([3H]CQ + PPQ) ([PPQ] 125 µM): 0.0728 h⁻¹ | KMapp ([3H]CQ + PPQ) ([PPQ] 200 µM): 365.31 µM | Vmaxapp ([3H]CQ + PPQ) ([PPQ] 200 µM): 21.83 pmol oocyte-1 h-1 | Vmaxapp/KMapp ([3H]CQ + PPQ) ([PPQ] 200 µM): 0.0619 h⁻¹ | KMapp ([3H]CQ + PPQ) ([PPQ] 350 µM): 375.85 µM | Vmaxapp ([3H]CQ + PPQ) ([PPQ] 350 µM): 19.75 pmol oocyte-1 h-1 | Vmaxapp/KMapp ([3H]CQ + PPQ) ([PPQ] 350 µM): 0.0554 h⁻¹ | KMapp ([3H]CQ + PPQ) ([PPQ] 500 µM): 353.13 µM | Vmaxapp ([3H]CQ + PPQ) ([PPQ] 500 µM): 17.90 pmol oocyte-1 h-1 | Vmaxapp/KMapp ([3H]CQ + PPQ) ([PPQ] 500 µM): 0.0540 h⁻¹ | β^CQ, partiality factor (fractional velocity plot, factor by which PPQ reduces the transport velocity of CQ): 0.31 ± 0.04 | Kd (secondary plot, half-maximal inhibitory concentration of Vmax,app versus inhibitor concentration, read-out: αKS, dissociation constant between the drug and the PfCRT complex with the other drug): 210 ± 120 µM | Kd (secondary plot, half-maximal inhibitory concentration of Vmax,app/KM,app versus inhibitor concentration, read-out: KS, dissociation constant between the drug and PfCRT): 250 ± 150 µM | α (αKS divided by KS) (secondary plots, label = prebound drug): 1.0 ± 0.3
